Patent publication US10959432B2, “Microbiocidal oxadiazole derivatives” (Syngenta Participations AG, priority 2016, dated 2021)

Key:
[1] = system: Puccinia recondita f. sp. tritici; assay: Fungicidal activity against Puccinia recondita f. sp. tritici / wheat / leaf disc preventative (brown rust); assay type: in vivo; details: foliar, 200 ppm in the applied formulation, wheat leaf segments cv. Kanzler, preventative (inoculated 1 day after application), assessed 7 to 9 days after application, read-out: disease control compared to untreated control leaf disks
Outline: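 Preventative leaf-segment test: compound sprayed at 200 ppm onto wheat (cv. Kanzler) segments, brown rust spores applied 1 day after. Kept at 19C and 75% rh under 12 h light/dark cycles; disease control versus untreated check read 7 to 9 days post-application.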

[2] = system: Uromyces viciae-fabae; assay: Fungicidal activity against Uromyces viciae-fabae / field bean / leaf disc preventative (faba-bean rust); assay type: in vivo; details: foliar, 288 h, 100 ppm in the applied formulation, field bean leaf discs, preventative (inoculated two hours after application), assessed 12 days after application, read-out: disease control compared to untreated control leaf discs
Outline: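 Field bean leaf discs on water agar treated with 10 μl compound in acetone plus spreader, then spray-inoculated on the lower surface with Uromyces viciae-fabae spores 2 h later. Incubation at 22 °C, 18 h day, 70% RH; percent disease control versus untreated scored 12 days after application, compounds at 100 ppm.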

[3] = system: Puccinia recondita f. sp. tritici; assay: Fungicidal activity against Puccinia recondita f. sp. tritici / wheat / leaf disc curative (brown rust); assay type: in vivo; details: foliar, 200 ppm in the applied formulation, wheat leaf segments cv. Kanzler, curative (applied 1 day after inoculation), assessed 6 to 8 days after application, read-out: disease control compared to untreated control leaf disks
Outline: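 Curative test: compound, diluted from DMSO stock into water, applied one day after spore inoculation of wheat (cv. Kanzler) leaf segments kept on agar in darkness at 19° C. and 75% RH. Climate-cabinet incubation (19° C., 75% RH, 12 h photoperiod); disease control relative to untreated read 6–8 days post-application.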

[4] = system: Glomerella laqenarium (Colletotrichum lagenarium); assay: Fungicidal activity against Glomerella lagenarium (Colletotrichum lagenarium) liquid culture / cucumber / preventative (anthracnose); assay type: cell-based; details: Colletotrichum orbiculare; 20 ppm in the applied formulation; liquid culture in PDB, 24° C., 3 to 4 days after application; read-out: disease control compared to untreated control (inhibition of growth measured photometrically)
Outline: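 Test compound, applied from DMSO solution, is combined with PDB containing conidia taken from cryogenic storage. After 3–4 days at 24 °C, growth is measured photometrically and antifungal activity expressed as percent relative to untreated control.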

[5] = system: Phakopsora pachyrhizi; assay: Fungicidal activity against Phakopsora pachyrhizi / soybean / leaf disc preventative (Asian soybean rust); assay type: in vivo; details: foliar, 200 ppm in the applied formulation, soybean leaf disks, preventative (inoculated one day after application), assessed 12 to 14 days after application, read-out: disease control compared to untreated control leaf disks
Outline: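 Preventative test: compound applied to soybean leaf discs a day before spore inoculation of the lower surface. Discs kept at 20° C and 75% rh, first 24-36 h in darkness, then under 12 h light/day; disease control relative to untreated discs rated 12 to 14 days post-application.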

O=C(NCCc1cccs1)c1ccc(-c2noc(C(F)(F)F)n2)cc1F [Compound 5b.13, 2-fluoro-N-[2-(2-thienyl)ethyl]-4-[5-(trifluoromethyl)-1,2,4-oxadiazol-3-yl]benzamide]
≥ 80%: pest or weed control at 200 ppm [1] | pest or weed control at 100 ppm [2] | pest or weed control at 200 ppm [3] | inhibition at 20 ppm [4] | pest or weed control at 200 ppm [5]

O=C(NCc1nccs1)c1ccc(-c2noc(C(F)(F)F)n2)cc1F [Compound 5b.19, 2-fluoro-N-(thiazol-2-ylmethyl)-4-[5-(trifluoromethyl)-1,2,4-oxadiazol-3-yl]benzamide]
≥ 80%: pest or weed control at 200 ppm [1] | pest or weed control at 100 ppm [2] | pest or weed control at 200 ppm [3] | inhibition at 20 ppm [4] | pest or weed control at 200 ppm [5]

Cc1ccc(CNC(=O)c2ccc(-c3noc(C(F)(F)F)n3)cc2Cl)o1 [Compound 5b.16, 2-chloro-N-[(5-methyl-2-furyl)methyl]-4-[5-(trifluoromethyl)-1,2,4-oxadiazol-3-yl]benzamide]
≥ 80%: pest or weed control at 200 ppm [1] | pest or weed control at 100 ppm [2] | pest or weed control at 200 ppm [3] | inhibition at 20 ppm [4] | pest or weed control at 200 ppm [5]

O=C(NCc1nccs1)c1ccc(-c2noc(C(F)(F)F)n2)cc1 [Compound 5a.10, N-(thiazol-2-ylmethyl)-4-[5-(trifluoromethyl)-1,2,4-oxadiazol-3-yl]benzamide]
≥ 80%: pest or weed control at 200 ppm [1] | pest or weed control at 100 ppm [2] | pest or weed control at 200 ppm [3] | inhibition at 20 ppm [4] | pest or weed control at 200 ppm [5]

O=C(NC1CCCC1(F)F)c1ccc(-c2noc(C(F)(F)F)n2)cc1 (stereo not shown) [Compound 2a.9, N-(2,2-difluorocyclopentyl)-4-[5-(trifluoromethyl)-1,2,4-oxadiazol-3-yl]benzamide]
≥ 80%: pest or weed control at 200 ppm [1] | pest or weed control at 100 ppm [2] | pest or weed control at 200 ppm [3] | inhibition at 20 ppm [4] | pest or weed control at 200 ppm [5]

O=C(NCC1CC(F)(F)C1(F)F)c1ccc(-c2noc(C(F)(F)F)n2)cc1F (stereo not shown) [Compound 2b.4, 2-fluoro-N-[(2,2,3,3-tetrafluorocyclobuty)methyl]-4-[5-(trifluoromethyl)-1,2,4-oxadiazol-3-yl]benzamide]
≥ 80%: pest or weed control at 200 ppm [1] | pest or weed control at 100 ppm [2] | pest or weed control at 200 ppm [3] | inhibition at 20 ppm [4] | pest or weed control at 200 ppm [5]

CC1(NC(=O)c2ccc(-c3noc(C(F)(F)F)n3)cc2F)CCC1 [Compound 2b.12, 2-fluoro-N-(1-methylcyclobutyl)-4-[5-(trifluoromethyl)-1,2,4-oxadiazol-3-yl]benzamide]
≥ 80%: pest or weed control at 200 ppm [1] | pest or weed control at 100 ppm [2] | pest or weed control at 200 ppm [3] | pest or weed control at 200 ppm [5]

CN(CC1OCCO1)C(=O)c1ccc(-c2noc(C(F)(F)F)n2)cc1F [Compound 1b.2, N-(1,3-dioxolan-2-ylmethyl)-2-fluoro-N-methyl-4-[5-(trifluoromethyl)-1,2,4-oxadiazol-3-yl]benzamide]
≥ 80%: pest or weed control at 200 ppm [1] | pest or weed control at 100 ppm [2] | pest or weed control at 200 ppm [3] | pest or weed control at 200 ppm [5]

CCN(C(=O)c1ccc(-c2noc(C(F)(F)F)n2)cc1)C1CCN(OC)CC1 [Compound 1a.4, N-ethyl-N-(1-methoxy-4-piperidyl)-4-[5-(trifluoromethyl)-1,2,4-oxadiazol-3-yl]benzamide]
≥ 80%: pest or weed control at 200 ppm [1] | pest or weed control at 100 ppm [2] | pest or weed control at 200 ppm [3] | inhibition at 20 ppm [4]

O=C(NCC1COCCO1)c1ccc(-c2noc(C(F)(F)F)n2)cc1 (stereo not shown) [Compound 1a.2, N-(1,4-dioxan-2-ylmethyl)-4-[5-(trifluoromethyl)-1,2,4-oxadiazol-3-yl]benzamide]
≥ 80%: pest or weed control at 200 ppm [1] | pest or weed control at 100 ppm [2] | pest or weed control at 200 ppm [3] | inhibition at 20 ppm [4] | pest or weed control at 200 ppm [5]

CN(Cc1ccccc1F)C(=O)c1ccc(-c2noc(C(F)(F)F)n2)cc1F [Compound 4b.9, 2-fluoro-N-[(2-fluorophenyl)methyl]-N-methyl-4-[5-(trifluoromethyl)-1,2,4-oxadiazol-3-yl]benzamide]
≥ 80%: pest or weed control at 200 ppm [1] | pest or weed control at 100 ppm [2] | pest or weed control at 200 ppm [3] | inhibition at 20 ppm [4] | pest or weed control at 200 ppm [5]

O=C(NCc1ccco1)c1ccc(-c2noc(C(F)(F)F)n2)cc1F [Compound 5b.11, 2-fluoro-N-(2-furylmethyl)-4-[5-(trifluoromethyl)-1,2,4-oxadiazol-3-yl]benzamide]
≥ 80%: pest or weed control at 200 ppm [1] | pest or weed control at 100 ppm [2] | pest or weed control at 200 ppm [3] | inhibition at 20 ppm [4] | pest or weed control at 200 ppm [5]

O=C(NCC1CCC1)c1ccc(-c2noc(C(F)(F)F)n2)cc1 [Compound 2a.3, N-(cyclobutylmethyl)-4-[5-(trifluoromethyl)-1,2,4-oxadiazol-3-yl]benzamide]
≥ 80%: pest or weed control at 200 ppm [1] | pest or weed control at 100 ppm [2] | pest or weed control at 200 ppm [3] | pest or weed control at 200 ppm [5]

CON1CCC(N(C)C(=O)c2ccc(-c3noc(C(F)(F)F)n3)cc2)CC1 [Compound 1a.3, N-(1-methoxy-4-piperidyl)-N-methyl-4-[5-(trifluoromethyl)-1,2,4-oxadiazol-3-yl]benzamide]
≥ 80%: pest or weed control at 200 ppm [1] | pest or weed control at 100 ppm [2] | pest or weed control at 200 ppm [3] | inhibition at 20 ppm [4]

O=C(NCc1ccco1)c1ccc(-c2noc(C(F)(F)F)n2)cc1Cl [Compound 5b.17, 2-chloro-N-(2-furylmethyl)-4-[5-(trifluoromethyl)-1,2,4-oxadiazol-3-yl]benzamide]
≥ 80%: pest or weed control at 200 ppm [1] | pest or weed control at 100 ppm [2] | pest or weed control at 200 ppm [3] | inhibition at 20 ppm [4] | pest or weed control at 200 ppm [5]

CC1(NC(=O)c2ccc(-c3noc(C(F)(F)F)n3)cc2)CCC1 [Compound 2a.4, N-(1-methylcyclobutyl)-4-[5-(trifluoromethyl)-1,2,4-oxadiazol-3-yl]benzamide]
≥ 80%: pest or weed control at 200 ppm [1] | pest or weed control at 100 ppm [2] | pest or weed control at 200 ppm [3] | pest or weed control at 200 ppm [5]

CC1(C)OCC(CNC(=O)c2ccc(-c3noc(C(F)(F)F)n3)cc2F)O1 (stereo not shown) [Compound 1b.6, N-[(2,2-dimethyl-1,3-dioxolan-4-yl)methyl]-2-fluoro-4-[5-(trifluoromethyl)-1,2,4-oxadiazol-3-yl]benzamide]
≥ 80%: pest or weed control at 200 ppm [1] | pest or weed control at 100 ppm [2] | pest or weed control at 200 ppm [3] | pest or weed control at 200 ppm [5]

Cc1ccsc1CN(C)C(=O)c1ccc(-c2noc(C(F)(F)F)n2)cc1F [Compound 5b.3, 2-fluoro-N-methyl-N-[(3-methyl-2-thienyl)methyl]-4-[5-(trifluoromethyl)-1,2,4-oxadiazol-3-yl]benzamide]
≥ 80%: pest or weed control at 100 ppm [2] | pest or weed control at 200 ppm [3] | inhibition at 20 ppm [4] | pest or weed control at 200 ppm [5]

CCCN(C(=O)c1ccc(-c2noc(C(F)(F)F)n2)cc1)C1CCN(OC)CC1 [Compound 1a.5, N-(1-methoxy-4-piperidyl)-N-propyl-4-[5-(trifluoromethyl)-1,2,4-oxadiazol-3-yl]benzamide]
≥ 80%: pest or weed control at 100 ppm [2] | pest or weed control at 200 ppm [3] | inhibition at 20 ppm [4]
